Assay results published in patent US20240217918A1 (APNIMED, INC. (DELAWARE), priority 2021, published 2024).

Experiment: Gravimetric vapor sorption (GVS)
Assay type: physicochemical
Settings: 25° C.
Protocol: GVS experiments were conducted on a Surface Measurement Systems DVS-Advantage. The experiments were performed at 25° C. The instrument was operated in step mode and the relative humidity was increased in 10% RH increments from 0% RH to 90% RH with an extra step at 75% RH, then decreased from 90% RH to 0% RH with an extra step at 75% RH. The mass equilibrium criterion was set at 0.005% change in mass over time (dm/dt). A minimum step time of 15 minutes and a maximum step time of 240 minutes were specified.

Question: With `CCN(CC)CC#CCOC(=O)[C@](O)(c1ccccc1)C1CCCCC1` [Form A, (R)-oxybutynin D-malate] as the compound, how does the hygroscopicity (GVS, 0-90% RH) read?
Answer: Its hygroscopicity is “non-hygroscopic solid”.

Question: And the moisture uptake (GVS, between 0-90% RH)?
Answer: The moisture uptake was 0.1%.

Question: What about the “change in crystal form after the GVS test” value (after GVS cycle 0-90-0% RH) of the same compound?
Answer: Its value is “No change in crystal form was observed”.
